From US20140011711A1, “MICROARRAY CELL CHIP” (Solidus Biosciences, Inc., priority 2010, published 2014)

Legend:
[1] = test system: Hep3B cell; experiment: Toxicity test of drugs, Hep3B cell cultured in microtiter plate (2D monolayer in 96-wells); type: cell-based; details: read-out: IC50 (concentration of drug when 50% of cells shows the growth inhibition), Microtiter Plate (2D Hep3B cell monolayer in 96-wells), drug cultured for a day
Source text: The values shown in the above Table were obtained based on the results of culturing the drug for a day, dying it immediately after the culturing, and scanning it.

[2] = test system: Hep3B cell; experiment: Toxicity test of drugs, Hep3B cell cultured in microarray cell chip (3D alginate culture on the chip); type: cell-based; details: read-out: IC50 (concentration of drug when 50% of cells shows the growth inhibition), Cell chip according to Invention (3D Hep3B cell culture on the chip); 3D Hep3B cell culture in alginate on the chip; drug cultured for a day; calcein AM / ethidium homodimer-1 staining
Method: The mixture of the alginate-Hep3B cell line primarily combined the upper substrate 100 formed on the spacer with the lower substrate 200 having 800 nl of culture medium in the well 210 to gelate the alginate, thereby removing the extra barium chloride. The upper substrate 100 is separated after removing the extra barium chloride and again combines with the lower substrate 200 having 800 nl of new culture medium in the well 210, thereby culturing the Hep3B cell.
After the culture ends, the Hep3B cell existing on the upper substrate 100 was dyed with the fluorescent material (calcein AM and ethidium homodimer-1).

Compound	IC50 [1] [µM]	IC50 [2] [µM]
CCN(CC)CCCC(C)Nc1ccnc2cc(Cl)ccc12 (stereo not drawn) [Chliroquine, Chloroquine]	50	
CCN(CC)C(=O)/C(C#N)=C/c1cc(O)c(O)c([N+](=O)[O-])c1 [Entacapone]	850	381
Cc1ccc(C(=O)c2cc(O)c(O)c([N+](=O)[O-])c2)cc1 [Tolcapone]	50	171
O=C(O)Cc1ccccc1Nc1c(Cl)cccc1Cl [Diclofenac]	230	375
CO[C@@]12[C@H](COC(N)=O)C3=C(C(=O)C(C)=C(N)C3=O)N1C[C@@H]1N[C@@H]12 [Mitomycin C]	40	124
